Test results from patent US7838509B2, “Methods and compositions to improve germ cell and embryo survival and function” (Bio-Origyn LLC, priority 1995, dated 2010).

Tested on: human sperm
Assay: Human sperm cultured in PCAGH or monomeric sugars: sperm motility vs control HTF (Table 3)
Format: cell-based
Conditions: for sperm motility compared to control HTF: human sperm; for sperm motility throughout a 24-hr culture period: compared to sperm cultured in arabinose and galactose or in control medium with no polysaccharides
Method: Sperm Motility. Sperm motility measurements may be performed by subjective visual determination using a phase contrast microscope to group sperm into total percent motile (swimming), and total percent progressively motile (swimming forward). AIso the speed of those sperm which are progressively motile is determined, i.e., fast, medium, slow.
Alternatively, CASA can be used to objectively determine the motility characteristics of individual sperm cells in a sample (Davis, Infertility & Reproductive Medicine Clinics 3:341, 1992). A 7 μl sperm sample is placed onto a slide or chamber designed for CASA, and the computer tracks individual sperm cells and determines their motility as to speed over distance. Data is then expressed as percent motile, and specific measurements are given for parameters, such as mean path velocity and track speed. The measurements of velocity and linearity correlate with future fertility in several species studied.
Samples containing sperm are incubated at 37° C. (human) or 39° C. (animal) in 5% CO2 and humidified air. At various timed intervals, sperm survival rate, motility characteristics, functional membrane health and membrane lipid peroxidation levels are determined as described in Example 2.

| Molecule | sperm motility compared to control HTF (culture time 3 hr) | sperm motility compared to control HTF (culture time 15 hr) | sperm motility compared to control HTF (culture time 24 hr) | sperm motility throughout a 24-hr culture period |
| --- | --- | --- | --- | --- |
| O=C[C@@H](O)[C@H](O)[C@H](O)CO [arabinose, reference compound] | = (Equivalent sperm motility compared to control HTF) | = (Equivalent sperm motility compared to control HTF) | = (Equivalent sperm motility compared to control HTF) |  |
| O=C[C@H](O)[C@@H](O)[C@@H](O)[C@H](O)CO [galactose, reference compound] | = (Equivalent sperm motility compared to control HTF) | = (Equivalent sperm motility compared to control HTF) | = (Equivalent sperm motility compared to control HTF) |  |
| O=C[C@H](O)[C@@H](O)[C@@H](O)[C@H](O)C(=O)O [galacturonic acid] | + | + | + | superior sperm motility |
| galactopyranosylarabinose | + | + | + | superior sperm motility |
